Counter-ions that a name gives are not always drawn.
Target: T1, MPO (purified from human polynuclear leukocytes) (Homo sapiens, UniProt P05164)
T1 construct: purified from human polynuclear leukocytes; purchased Calbiochem/EMD Biosciences; host or cells: human polynuclear leukocytes (natural source)
Assay: MPO Amplex Red Activity Assay
Format: biochemical
Details: Table 1, 2 μM H2O2, pH 7.4
Method in brief: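 Human leukocyte MPO […] oxidises 30 μM Amplex Red with 2 μM H2O2 in 50 mM NaPi pH 7.4, 150 mM NaCl, 1 mM DTPA, 2% DMSO. Resorufin fluorescence (ex 530/em 580 nm) read every 20 s, minus catalase background. kobs from the first 600 s, corrected for auto-inactivation, fit versus [I] for kinact/KI.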

T1 sequence (P05164 279-745 limits assumed): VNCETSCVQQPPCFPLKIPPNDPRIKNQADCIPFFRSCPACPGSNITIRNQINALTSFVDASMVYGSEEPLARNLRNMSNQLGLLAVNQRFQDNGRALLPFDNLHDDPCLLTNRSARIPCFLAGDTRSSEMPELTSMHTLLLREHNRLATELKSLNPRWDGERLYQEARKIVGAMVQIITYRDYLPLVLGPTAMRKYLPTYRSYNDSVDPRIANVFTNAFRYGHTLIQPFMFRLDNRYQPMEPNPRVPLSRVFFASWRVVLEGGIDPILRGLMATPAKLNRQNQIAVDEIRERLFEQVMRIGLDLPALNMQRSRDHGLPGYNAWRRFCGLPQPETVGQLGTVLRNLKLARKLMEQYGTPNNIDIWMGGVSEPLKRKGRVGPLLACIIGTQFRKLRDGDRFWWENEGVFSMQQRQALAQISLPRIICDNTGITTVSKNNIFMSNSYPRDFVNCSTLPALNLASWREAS
T1 sequence (P05164 165-273 limits assumed): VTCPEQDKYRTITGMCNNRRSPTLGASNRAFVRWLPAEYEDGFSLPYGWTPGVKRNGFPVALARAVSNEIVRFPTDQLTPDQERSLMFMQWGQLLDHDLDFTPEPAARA

Row | SMILES | MPO kinact/Ki
1 | COCCn1c(-c2cnc(N(C)C)nc2)cc(=O)[nH]c1=S [Example 314, 2′-(dimethylamino)-3-(2-methoxyethyl)-2-thioxo-2,3-dihydro-4,5′-bipyrimidin-6(1H)-one] | 429 1/s per M
2 | COc1ccc(Cl)cc1-c1cc(=O)[nH]c(=S)n1C[C@H](O)CN [Example 114, 1-[(2R)-3-amino-2-hydroxypropyl]-6-(5-chloro-2-methoxyphenyl)-2-thioxo-2,3-dihydropyrimidin-4(1H)-one trifluoroacetate] | 9770 1/s per M
3 | COc1cccc(-c2cc(=O)[nH]c(=S)n2CCO)c1 [Example 155, 1-(2-hydroxyethyl)-6-(3-methoxyphenyl)-2-thioxo-2,3-dihydropyrimidin-4(1H)-one] | 8090 1/s per M
4 | COc1nc(C)ccc1-c1cc(=O)[nH]c(=S)n1CCO [Example 21, 1-(2-hydroxyethyl)-6-(2-methoxy-6-methylpyridin-3-yl)-2-thioxo-2,3-dihydropyrimidin-4(1H)-one] | 4530 1/s per M
5 | NCCn1c(-c2cccc3ccoc23)cc(=O)[nH]c1=S [Example 143, 1-(2-aminoethyl)-6-(1-benzofuran-7-yl)-2-thioxo-2,3-dihydropyrimidin-4(1H)-one hydrochloride] | 8110 1/s per M
6 | O=c1cc(-c2ccccc2OCCO)n(CCO)c(=S)[nH]1 [Example 168, 6-[2-(2-hydroxyethoxy)phenyl]-1-(2-hydroxyethyl)-2-thioxo-2,3-dihydropyrimidin-4(1H)-one] | 8890 1/s per M
7 | COc1ccc(C)cc1-c1cc(=O)[nH]c(=S)n1CCNC(=O)CN [Example 120, N-{2-[6-(2-methoxy-5-methylphenyl)-4-oxo-2-thioxo-3,4-dihydropyrimidin-1(2H)-yl]ethyl} glycinamide hydrochloride] | 9720 1/s per M
8 | COCCn1c(-c2cccc(S(=O)(=O)N(C)C)c2)cc(=O)[nH]c1=S [Example 348, 3-[3-(2-methoxyethyl)-6-oxo-2-thioxo-1,2,3,6-tetrahydropyrimidin-4-yl]-N,N-dimethylbenzenesulfonamide] | 1400 1/s per M
9 | COc1ccc(-c2cc(=O)[nH]c(=S)n2CCCNCCO)c(OC)c1 [Example 245, 6-(2,4-dimethoxyphenyl)-1-{3-[(2-hydroxyethyl)amino]propyl}-2-thioxo-2,3-dihydropyrimidin-4(1H)-one] | 1520 1/s per M
10 | CCOc1ccccc1-c1cc(=O)[nH]c(=S)n1CCOC [Example 310, 6-(2-ethoxyphenyl)-1-(2-methoxyethyl)-2-thioxo-2,3-dihydropyrimidin-4(1H)-one] | 3110 1/s per M
11 | COc1ccc(-c2cc(=O)[nH]c(=S)n2CC(N)=O)c2ccccc12 [Example 205, 2-[6-(4-methoxy-1-naphthyl)-4-oxo-2-thioxo-3,4-dihydropyrimidin-1(2H)-yl]acetamide] | 4900 1/s per M
12 | COc1ncc(Cl)cc1-c1cc(=O)[nH]c(=S)n1CC(N)=O [Example 145, 2-[6-(5-chloro-2-methoxypyridin-3-yl)-4-oxo-2-thioxo-3,4-dihydropyrimidin-1(2H)-yl]acetamide] | 5080 1/s per M
13 | COCCn1c(-c2cccc(F)c2)cc(=O)[nH]c1=S [Example 289, 6-(3-fluorophenyl)-1-(2-methoxyethyl)-2-thioxo-2,3-dihydropyrimidin-4(1H)-one] | 1580 1/s per M

Same assay, conditions: Table 1A, 2 μM H2O2, pH 7.4

Row | SMILES | MPO kinact/Ki
14 | COc1ccc(OCCO)c(-c2cc(=O)[nH]c(=S)n2CC(=O)NCCN)c1 [Example 378, N-(2-aminoethyl)-2-{6-[2-(2-hydroxyethoxy)-5-methoxyphenyl]-4-oxo-2-thioxo-3,4-dihydropyrimidin-1(2H)-yl}acetamide] | 5040 1/s per M
